Laboratory results: patent publication US20100003326A1, “DRUG DELIVERY DEVICE COMPRISING A PHARMACEUTICALLY OR BIOLOGICALLY ACTIVE COMPONENT AND AN INFRARED ABSORBING COMPOUND” (DOLPHYS TECHNOLOGIES B.V., priority 2006, published 2010)

Assays:
[1] = Ibuprofen blood plasma concentration after infrared triggering of subcutaneous strand in rat; assay type: in vivo; details: sc; for concentration at 1 day: first time; for concentration at 2 day: second time (next day)
Method: An object consisting of a compounded strand with a diameter of 2.0 mm and a length of 2.0 cm. […] Addition of ibuprofen led to a lowering of the Tg to about −1° C.
The strand was placed subcutaneously in a rat. After 1 day, the strand was irradiated perpendicularly to the length axis with the same laser diode module as in Example 1a, for 15 minutes, the laser power set at 750 mW and the distance between fiber exit and the skin of the rat being 20 mm. The next day this procedure was repeated again.
Blood samples were taken before, during and after triggering on both days. As a consequence of irradiation, the concentration of ibuprofen in the blood plasma increased the first time from below 5 ng/ml (no detection peak of LC-MS/MS was found) to 25 ng/ml and the second time from below 5 ng/ml (no peak was found) to 19 ng/ml.

[2] = Infrared-triggered release of ibuprofen from P(BMA-MMA) disc in physiological buffer; assay type: physicochemical; details: physiological buffer at 30° C.; for speed of release of ibuprofen from the disc: P(BMA-MMA) disc, 290 ppm Lumogen IR 788, 5 wt % ibuprofen
Method: An object consisting of a pressed circular disc with a diameter of 2.5 cm and thickness of 2 mm was placed in a holder in a vessel completely containing 90 mL physiological buffer at 30° C. […] Addition of ibuprofen led to a lowering of the Tg to about 35° C. The disc was irradiated perpendicularly to the surface with the same laser diode module as in Example 1a, the laser power being 750 mW and the distance between fiber exit and disc 50 mm. The water layer between sample and disc was approximately 20 mm. A glass lid was placed on the vessel to prevent water evaporation. The vessel was completely filled with water, thus avoiding reflection and refraction effects at an additional air/water interface. The near-infrared irradiation only encountered an air to glass and a glass to water transition. Irradiation was applied in an alternating manner, periods of irradiation of 4 hours being alternated by periods of 20 hours without irradiation.

[3] = subcutaneous strand with 40 wt % ibuprofen, as a consequence of 15 minutes irradiation at 750 mW

concentration at 1 day ([1]; subcutaneous poly(L,DL-Lactide) strand with 40 wt % ibuprofen, before irradiation, LC-MS/MS): < 5 ng/mL
concentration at 1 day [1, 3]: 25 ng/mL
concentration at 2 day [1, 3]: 19 ng/mL
concentration at 2 day ([1]; subcutaneous strand with 40 wt % ibuprofen, before irradiation, LC-MS/MS): < 5 ng/mL
speed of release of ibuprofen from the disc ([2]; during irradiation (785 nm laser, 750 mW, 4 hours periods)): around 3.9×10^−6 g/h
speed of release of ibuprofen from the disc ([2]; without irradiation (base value)): less than 1×10^−6 g/h
SMILES: CC(C)Cc1ccc(C(C)C(=O)O)cc1 (stereo not shown) [ibuprofen]
release of ibuprofen after stopping irradiation ([2]; after stopping irradiation, same disc): fell virtually immediately to the base value
